From US12358932B2, “Chemical compounds” (BORAH, INC., priority 2019, dated 2025) come the findings set out here.

The assay concerns the target T1, Recombinant human PDE4B (Homo sapiens, UniProt Q07343).
T1 construct: aa 305-end; GST (N); made in house; host or cells: Sf9 insect cells (baculovirus)
Nature of the assay: PDE4B Phosphodiesterase Assay. Format: biochemical. Conditions: compound list; + = noted target activity. Further details: key to Activity Note: PDE4: The (+) symbols identify a compound of the present disclosure with the noted target activity; +*: The (*) symbols indicate preferential activity, where the greater number identifies the most preferred compounds; +**: The (*) symbols indicate preferential activity, where the greater number identifies the most preferred compounds; +***: The (*) symbols indicate preferential activity, where the greater number identifies the most preferred compounds. The method, then: The assay is based on the fluorescence polarization measuring AMP/GMP production as a result of the enzyme activity by displacement of Tracer binding to the AMP/GMP antibody. • Reaction Buffer: 10 mM Tris-HCl, pH 7.5, 5 mM MgCl2, 0.01% Brij 35, 1 mM DTT and 1% DMSO. • Enzyme: Recombinant human PDE4B (Gene Accession #NM_002600; aa 305-end) was expressed by baculovirus in Sf9 insect cells using an N-terminal GST tag. Mw=78 kDa. • Substrate: 1 μM cAMP • Detection: Transcreener® AMP2/GMP2 Antibody AMP2/GMP2 AlexaFluor 633 Tracer Reaction Procedure: • 1. Prepared indicated enzyme and substrate in freshly prepared Reaction Buffer • 2. Delivered enzyme solution into the reaction well • 3. Delivered compounds in 100% DMSO into the enzyme solution by Acoustic technology (Echo550; nanoliter range), incubated for 10 min at room temperature • 4. Delivered substrate solution into the reaction well to initiate the reaction • 5. Incubated for 1 h at room temperature • 6. Added detection mixture (Tracer and antibody in the stop buffer) to stop the reaction and incubated for 90 min with gentle mixing. The fluorescence polarization was measured at Ex/Em 620/688.
Data Analysis: The FP signals were converted into nM product based on an AMP/GMP standard curve and calculated % Enzyme activity relative to DMSO control by Excel. The curve fit was performed using GraphPad prism.

T1 sequence (Q07343 305-736 limits assumed): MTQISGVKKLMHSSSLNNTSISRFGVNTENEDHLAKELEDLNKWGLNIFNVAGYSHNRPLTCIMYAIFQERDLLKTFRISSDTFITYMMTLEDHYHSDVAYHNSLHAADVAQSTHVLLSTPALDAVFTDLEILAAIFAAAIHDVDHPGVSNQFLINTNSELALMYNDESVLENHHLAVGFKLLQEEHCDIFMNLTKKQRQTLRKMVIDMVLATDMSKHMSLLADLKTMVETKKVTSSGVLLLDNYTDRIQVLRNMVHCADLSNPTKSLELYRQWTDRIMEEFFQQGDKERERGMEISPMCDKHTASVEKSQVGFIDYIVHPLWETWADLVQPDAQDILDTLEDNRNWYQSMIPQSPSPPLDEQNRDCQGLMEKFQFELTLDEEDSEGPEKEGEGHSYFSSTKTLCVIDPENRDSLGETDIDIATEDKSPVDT

As for `Cc1cnc(Nc2ccc3c(c2)COB3O)nc1Nc1cccc2c1C(=O)N(CCF)C2` [2-(2-fluoroethyl)-7-((2-((1-hydroxy-1,3-dihydrobenzo[c][1,2]oxaborol-5-yl)amino)-5-methylpyrimidin-4-yl)amino)isoindolin-1-one], the “Activity Note: PDE4” value is “+”.

With `CCC(CC)Nc1nc(Nc2ccc3c(c2)COB3O)ncc1C#N` [2-((1-hydroxy-1,3-dihydrobenzo[c][1,2]oxaborol-5-yl)amino)-4-(pentan-3-ylamino) pyrimidine-5-carbonitrile], the “Activity Note: PDE4” value is recorded as “+”.

Regarding `CCCNc1nc(Nc2ccc3c(c2)COB3O)ncc1C=O` [2-((1-hydroxy-1,3-dihydrobenzo[c][1,2]oxaborol-5-yl)amino)-4-(propylamino)pyrimidine-5-carbaldehyde], the “Activity Note: PDE4” value was “+”.

For `Cc1cnc(Nc2ccc3c(c2)COB3O)nc1NC(CCO)CCO` [3-((2-((1-hydroxy-1,3-dihydrobenzo[c][1,2]oxaborol-5-yl)amino)-5-methylpyrimidin-4-yl)amino)pentane-1,5-diol], the “Activity Note: PDE4” value is given as “+”.

`Cc1cnc(Nc2ccc3c(c2)COB3O)nc1NC(CCF)CCF` [5-((4-((1,5-difluoropentan-3-yl)amino)-5-methylpyrimidin-2-yl)amino)benzo[c][1,2]oxaborol-1(3H)-ol]: the “Activity Note: PDE4” value is “+”.

For `CCC(CO)Nc1nc(Nc2ccc3c(c2)COB3O)ncc1C` (centres unmarked) [5-((4-((1-hydroxybutan-2-yl)amino)-5-methylpyrimidin-2-yl)amino)benzo[c][1,2]oxaborol-1(3H)-ol], the “Activity Note: PDE4” value is “+”.

Take `CCC(CCOC)Nc1nc(Nc2ccc3c(c2)COB3O)ncc1C(F)(F)F` (centres unmarked) [5-((4-((1-methoxypentan-3-yl)amino)-5-(trifluoromethyl)pyrimidin-2-yl)amino)benzo[c][1,2]oxaborol-1(3H)-ol]: the “Activity Note: PDE4” value is reported as “+”.

In the case of `Cc1cnc(Nc2ccc3c(c2)COB3O)nc1Nc1ccccc1Cl` [5-((4-((2-chlorophenyl)amino)-5-methylpyrimidin-2-yl)amino)benzo[c][1,2]oxaborol-1(3H)-ol], the “Activity Note: PDE4” value was “+”.

As for `OB1OCc2cc(Nc3ncc(C(F)(F)F)c(NCCC4CC4)n3)ccc21` [5-((4-((2-cyclopropylethyl)amino)-5-(trifluoromethyl)pyrimidin-2-yl)amino)benzo[c][1,2]oxaborol-1(3H)-ol], the “Activity Note: PDE4” value was “+”.

`OB1OCc2cc(Nc3ncc(F)c(NCCC4CC4)n3)ccc21` [5-((4-((2-cyclopropylethyl)amino)-5-fluoropyrimidin-2-yl)amino)benzo[c][1,2]oxaborol-1(3H)-ol]: the “Activity Note: PDE4” value is “+”.

For `Cc1cnc(Nc2ccc3c(c2)COB3O)nc1NCCC1CC1` [5-((4-((2-cyclopropylethyl)amino)-5-methylpyrimidin-2-yl)amino)benzo[c][1,2]oxaborol-1(3H)-ol], the “Activity Note: PDE4” value is reported as “+”.

Turning to `CCc1ccccc1Nc1nc(Nc2ccc3c(c2)COB3O)ncc1C` [5-((4-((2-ethylphenyl)amino)-5-methylpyrimidin-2-yl)amino)benzo[c][1,2]oxaborol-1(3H)-ol], the “Activity Note: PDE4” value is “+”.

Regarding `Cc1cnc(Nc2ccc3c(c2)COB3O)nc1Nc1ccccc1F` [5-((4-((2-fluorophenyl)amino)-5-methylpyrimidin-2-yl)amino)benzo[c][1,2]oxaborol-1(3H)-ol], the “Activity Note: PDE4” value is reported as “+”.

Consider `Cc1cnc(Nc2ccc3c(c2)COB3O)nc1NC1CCOC(O)C1` (centres unmarked) [5-((4-((2-hydroxytetrahydro-2H-pyran-4-yl)amino)-5-methylpyrimidin-2-yl)amino)benzo[c][1,2]oxaborol-1(3H)-ol], for which the “Activity Note: PDE4” value is listed as “+”.

`COc1ccccc1Nc1nc(Nc2ccc3c(c2)COB3O)ncc1C` [5-((4-((2-methoxyphenyl)amino)-5-methylpyrimidin-2-yl)amino)benzo[c][1,2]oxaborol-1(3H)-ol]: the “Activity Note: PDE4” value is “+”.

Regarding `Cc1cnc(Nc2ccc3c(c2)COB3O)nc1Nc1cccc(CO)c1` [5-((4-((3-(hydroxymethyl)phenyl)amino)-5-methylpyrimidin-2-yl)amino)benzo[c][1,2]oxaborol-1(3H)-ol], the “Activity Note: PDE4” value was “+”.

Regarding `Cc1cnc(Nc2ccc3c(c2)COB3O)nc1NCc1cccc(Cl)c1` [5-((4-((3-chlorobenzyl)amino)-5-methylpyrimidin-2-yl)amino)benzo[c][1,2]oxaborol-1(3H)-ol], the “Activity Note: PDE4” value is “+”.

Regarding `Cc1cnc(Nc2ccc3c(c2)COB3O)nc1NCc1cccc(F)c1` [5-((4-((3-fluorobenzyl)amino)-5-methylpyrimidin-2-yl)amino)benzo[c][1,2]oxaborol-1(3H)-ol], the “Activity Note: PDE4” value is “+”.

For `Cc1cnc(Nc2ccc3c(c2)COB3O)nc1NCc1ccc(Cl)cc1` [5-((4-((4-chlorobenzyl)amino)-5-methylpyrimidin-2-yl)amino)benzo[c][1,2]oxaborol-1(3H)-ol], the “Activity Note: PDE4” value is “+”.

With `Cc1cnc(Nc2ccc3c(c2)COB3O)nc1NCc1ccc(F)cc1` [5-((4-((4-fluorobenzyl)amino)-5-methylpyrimidin-2-yl)amino)benzo[c][1,2]oxaborol-1(3H)-ol], the “Activity Note: PDE4” value is “+”.

As for `OB1OCc2cc(Nc3ncc(C(F)(F)F)c(NCc4ccccc4)n3)ccc21` [5-((4-(benzylamino)-5-(trifluoromethyl)pyrimidin-2-yl)amino)benzo[c][1,2]oxaborol-1(3H)-ol], the “Activity Note: PDE4” value is “+”.

For the compound `OB1OCc2cc(Nc3ncc(Cl)c(NCc4ccccc4)n3)ccc21` [5-((4-(benzylamino)-5-chloropyrimidin-2-yl)amino)benzo[c][1,2]oxaborol-1(3H)-ol], the “Activity Note: PDE4” value was “+”.

Take `OB1OCc2cc(Nc3ncc(F)c(NCc4ccccc4)n3)ccc21` [5-((4-(benzylamino)-5-fluoropyrimidin-2-yl)amino)benzo[c][1,2]oxaborol-1(3H)-ol]: the “Activity Note: PDE4” value is “+”.

`Cc1cnc(Nc2ccc3c(c2)COB3O)nc1NCc1ccccc1` [5-((4-(benzylamino)-5-methylpyrimidin-2-yl)amino)benzo[c][1,2]oxaborol-1(3H)-ol]: the “Activity Note: PDE4” value was “+”.

Turning to `Cc1cnc(Nc2ccc3c(c2)COB3O)nc1NC1CCC1` [5-((4-(cyclobutylamino)-5-methylpyrimidin-2-yl)amino)benzo[c][1,2]oxaborol-1(3H)-ol], the “Activity Note: PDE4” value is given as “+”.

Take `OB1OCc2cc(Nc3ncc(C(F)(F)F)c(NC4CCCCC4)n3)ccc21` [5-((4-(cyclohexylamino)-5-(trifluoromethyl)pyrimidin-2-yl)amino)benzo[c][1,2]oxaborol-1(3H)-ol]: the “Activity Note: PDE4” value is recorded as “+”.

For `OB1OCc2cc(Nc3ncc(F)c(NC4CCCCC4)n3)ccc21` [5-((4-(cyclohexylamino)-5-fluoropyrimidin-2-yl)amino)benzo[c][1,2]oxaborol-1(3H)-ol], the “Activity Note: PDE4” value was “+”.

For `Cc1cnc(Nc2ccc3c(c2)COB3O)nc1NC1CCCCC1` [5-((4-(cyclohexylamino)-5-methylpyrimidin-2-yl)amino)benzo[c][1,2]oxaborol-1(3H)-ol], the “Activity Note: PDE4” value is given as “+”.

`OB1OCc2cc(Nc3nccc(NC4CCCCC4)n3)ccc21` [5-((4-(cyclohexylamino)pyrimidin-2-yl)amino)benzo[c][1,2]oxaborol-1(3H)-ol]: the “Activity Note: PDE4” value is given as “+”.
